The values that follow are results of earlier work, collected in patent publication US8980889B2, “Pyrazole derivative” (Mochida Pharmaceutical Co., Ltd., priority 2013, dated 2015).

Holding throughout (settings): U.S. Patent Application No. 2003/0032579
For series [1], the system named is rats.
Series [2] concerns rat brain.
In series [3] the test system is rat.

Turning to `COc1ccc(Cc2nccc3cc(OC)c(OC)cc23)cc1OC` [papaverine], the apomorphine-induced stereotypy entry in series [1] is given as “decreases”. Also, the “dopamine level in the rat brain” value in series [2] is “decreases”. For the same compound, the haloperidol-induced catalepsy result in series [3] is recorded as “increases”.
